Source: US11357779B2 (G1 Therapeutics, Inc., priority 2018, dated 2022)
Read-outs that look alike come from different tables or passages of the source.

What was measured:
[1] = Pharmacokinetics of Compound I in healthy volunteers after a single dose of Form B of Compound II; assay type: in vivo, human; details: for AUC(0-inf) / Cmax / Tmax / half-life / Vd/F: human, oral; for Vd/F: read-out: Vz/F
Procedure: Table 84 provides the pharmacokinetic parameters of Compound I upon administration of a single dose of Form B of Compound II (48, 100, 200, 300, 400, or 600 mg) in healthy volunteers. Blood samples for analysis of Compound I were collected pre-dose and 0.25, 0.5, 1, 1.5, 2, 3, 4, 6, 8, 12, 24, 36, 48, 72, and 96 hours post-dose.

[2] = Slurry conversion of impure Form B to pure Form B (small scale and scale-up, XRPD); assay type: physicochemical
Procedure: Approximately 16 small scale slurry experiments were carried out by varying the slurry concentration, temperature, HCl acid molar concentration, and content in the aqueous acetone mixtures as well as the water content. Slurries of impure Form B were performed in a given solvent system at targeted calculated concentration at ambient or elevated temperatures for various time/durations. The solids were isolated by vacuum filtration and submitted for XRPD analysis. The specific experimental conditions are detailed in Table 109 where solvent system ratios are by volume.
The slurries in acidic aqueous acetone mixtures at an elevated temperature of 50° C. […] FIG. 19 compares XRPD patterns of Sample 3 and 5 to the starting material of the experiments, impure Form B and to pure Form B. For comparison purposes, the samples were also compared to a second impure sample of Form B, (Impure Form B Sample 2 in FIG. 19). This second impure Form B contained larger amounts of the unknown Form than the impure Form B previously described in Example 8.
Several slurry experiments were performed in water:acetone solvent systems starting with impure Form B and varying the water:acetone ratio, slurry concentration, and time. Based on the initial slurry results, experiments in 1:2 (v/v) water:acetone at ambient temperature were performed with aliquots taken after 16 hours (Sample 6) and 20.5 hours (Sample 7). The slurry in this solvent system was conducted at a concentration of 100-125 mg/mL and ambient temperature. The XRPD patterns of the resulting materials were consistent with pure Form B (FIG. 20).
In an effort to improve the yield, water:acetone 1:3 (v/v) was used at 150 mg/mL concentration (Samples 13 and 14) however, the conversion was not completed even after 4 days (FIG. 21). Therefore, one experiment was performed using water:acetone 1:2 (v/v) slurry for 18 hours and then adding acetone to reach ratio water:acetone 1:4 (v/v) followed by slurry for 4 hours (Sample 12). The XRPD pattern of the resulting material was consistent with Form B, however, one of the undesired peaks reappeared shifted from 3.95 °2θ to 4.2 °2θ (FIG. 21).
The Julabo FP50 temperature control unit contained Julabo Thermal C10 fluid and the reactor temperature was measured with a K-type PTFE temperature probe. The experiments were carried out with Lara Control software version 2.3.5.0. The software tracked circulator temperature, vessel temperature, and stir rate, recording readings every tenth of a second throughout the experiment.
The reactor vessel was charged with the solids of impure Form B (58.86 g) in 471 mL of a water:acetone 1:2 (v/v) solvent system achieving 125 mg/mL slurry concentration (Samples 20-23). The resulting slurry was stirred at 30° C. for up to 43 hours with stirring speed of 400 rpm. The slurry was cooled to 25° C. over 30 minutes, discharged from the reactor vessel, and immediately slowly filtered (drop by drop) to […]. A water:acetone 1:2 (v/v) wash solution was prepared in advance and used to wash the filter cake in one portion.
Pulls were taken usually at the 20th hour and if needed at later time points (Table 110).
The conversion of impure Form B to pure Form B was conducted in water:acetone 1:2 (v/v) slurry at 125 mg/mL concentration and 30° C. for 43 hours. Very slow filtration was observed and the wet cake was air-dried at ambient conditions for 3.5 hours followed by vacuum drying at ambient temperature and 15 in Hg for 0.5 hour and then at ˜27 in Hg for 3.5 hours yielding 49.26 g ([…]).

[3] = Crystallization and slurry experiments, morphic forms of Compound II (XRPD, characterization); assay type: physicochemical; details: for Time point (1 day) XRPD: Stirring at RT
Procedure: Eleven unique XRPD patterns (Form A-Form K) of Compound II were obtained from crystallization and slurry experiments using various solvents.
Forms A, B, and D were evaluated as solid state forms.

[4] = blood, single 100 mg dose of Form B of Compound II
[5] = blood, single 200 mg dose of Form B of Compound II
[6] = blood, single 300 mg dose of Form B of Compound II
[7] = plasma, single 48 mg dose of Form B of Compound II
[8] = plasma, single 400 mg dose of Form B of Compound II
[9] = plasma, single 600 mg dose of Form B of Compound II

CC(C)N1CCN(c2ccc(Nc3ncc4cc5n(c4n3)C3(CCCCC3)CNC5=O)nc2)CC1 [Compound I, 2′-((5-(4-isopropylpiperazin-1-yl)pyridin-2-yl)amino)-7′,8′-dihydro-6′H-spiro[cyclohexane-1,9′-pyrazino[1′,2′:1,5]pyrrolo[2,3-d]pyrimidin]-6′-one]
AUC(0-inf) [1, 4]: 0.0602 µg·h/mL | Cmax [1, 4]: 0.00923 µg/mL | Tmax [1, 4]: 2 h | half-life [1, 4]: 4.71 h | Vd/F [1, 4]: 11300 L | AUC(0-inf) [1, 5]: 0.275 µg·h/mL | Cmax [1, 5]: 0.0293 µg/mL | Tmax [1, 5]: 3 h | half-life [1, 5]: 13.8 h | Vd/F [1, 5]: 14500 L | AUC(0-inf) [1, 6]: 0.349 µg·h/mL | Cmax [1, 6]: 0.027 µg/mL | Tmax [1, 6]: 3.5 h | half-life [1, 6]: 15.4 h | Vd/F [1, 6]: 19100 L | Tmax ([1]; blood, single 400 mg dose of Form B of Compound II): 5 h | AUC(0-inf) [1, 7]: 0.0204 µg·h/mL | Cmax [1, 7]: 0.00365 µg/mL | Tmax [1, 7]: 2 h | half-life [1, 7]: 3.07 h | Vd/F [1, 7]: 10400 L | AUC(0-inf) [1, 8]: 0.432 µg·h/mL | Cmax [1, 8]: 0.0263 µg/mL | half-life [1, 8]: 14.9 h | Vd/F [1, 8]: 19900 L | AUC(0-inf) [1, 9]: 0.886 µg·h/mL | Cmax [1, 9]: 0.059 µg/mL | Tmax [1, 9]: 6 h | half-life [1, 9]: 17.2 h | Vd/F [1, 9]: 16800 L | CL/F ([1]; single 48 mg dose of Form B of Compound II): 2354 L/h | CL/F ([1]; single 100 mg dose of Form B of Compound II): 1660 L/h | CL/F ([1]; single 200 mg dose of Form B of Compound II): 727 L/h | CL/F ([1]; single 300 mg dose of Form B of Compound II): 861 L/h | CL/F ([1]; single 400 mg dose of Form B of Compound II): 926 L/h | CL/F ([1]; single 600 mg dose of Form B of Compound II): 677 L/h

CC(C)N1CCN(c2ccc(Nc3ncc4cc5n(c4n3)C3(CCCCC3)CNC5=O)nc2)CC1 [Compound II, 2′-((5-(4-isopropylpiperazin-1-yl)pyridin-2-yl)amino)-7′,8′-dihydro-6′H-spiro[cyclohexane-1,9′-pyrazino[1′,2′:1,5]pyrrolo[2,3-d]pyrimidin]-6′-one]
XRPD Result ([2]; 125 mg/mL Slurry, 30° C., 20 h): Form B + small broad | XRPD Result ([2]; 125 mg/mL Slurry, 30° C., 24 h): B + broad peaks at 4.2° | XRPD Result ([2]; 125 mg/mL Slurry, 30° C., 42 h): Form B | XRPD Result ([2]; 125 mg/mL Slurry, 30° C., 43 h VF, washed with 50 mL of H2O:acetone 1:2, Air-dried for 3.5 h): Form B | XRPD Result ([2]; Vacuum drying, 22° C., 0.5 h, 15 in Hg, 22° C. 1.5 h, 27-28 in Hg): Form B | XRPD Result ([2]; Vacuum drying, 22° C., 2.0 h, 27 in Hg): Form B | XRPD ([3]; MeOH/0.5 mL, 60.0° C., Fast Cooling (4° C.), anti solvent EtOAc/0.2 mL, ppt/filter): Weak crystalline | XRPD ([3]; MeOH/0.5 mL, 60.0° C., Fast Cooling (4° C.), anti solvent n-BuOH/5.0 mL, ppt/filter): Weak crystalline | XRPD ([3]; MeOH/0.5 mL, 60.0° C., Fast Cooling (4° C.), anti solvent n-PrOH/5.0 mL, ppt/filter): Weak crystalline | XRPD ([3]; MeOH/0.5 mL, 60.0° C., Slow Cooling (20° C./hr), anti solvent Acetone/0.5 mL, ppt/filter): Weak crystalline | XRPD ([3]; MeOH/0.5 mL, 60.0° C., Slow Cooling (20° C./hr), anti solvent EtOH/5.0 mL, ppt/filter): Weak crystalline | XRPD ([3]; MeOH/0.5 mL, 60.0° C., Slow Cooling (20° C./hr), anti solvent MIBK/0.1 mL, ppt/filter (first listing)): Weak crystalline | XRPD ([3]; MeOH/0.5 mL, 60.0° C., Slow Cooling (20° C./hr), anti solvent MeCN/2.5 mL, ppt/filter): Weak crystalline | XRPD ([3]; MeOH/0.5 mL, 60.0° C., Slow Cooling (20° C./hr), anti solvent THF/0.5 mL, ppt/filter): Weak crystalline | XRPD ([3]; MeOH/0.5 mL, 60.0° C., Slow Cooling (20° C./hr), anti solvent Toluene/1.5 mL, ppt/filter (second listing)): Weak crystalline | XRPD ([3]; MeOH/0.5 mL, 60.0° C., Slow Cooling (20° C./hr), anti solvent n-BuOH/5.0 mL, ppt/filter): Weak crystalline | XRPD ([3]; MeOH/0.5 mL, 60.0° C., Slow Cooling (20° C./hr), anti solvent n-PrOH/5.0 mL, ppt/filter): Weak crystalline | XRPD ([3]; Water/0.5 mL, 60.0° C., Fast Cooling (4° C.), anti solvent EtOH/5.0 mL, Clear/Evap.): Weak crystalline | XRPD ([3]; Water/0.5 mL, 60.0° C., Fast Cooling (4° C.), anti solvent MeCN/5.0 mL, ppt/filter): Weak crystalline | XRPD ([3]; Water/0.5 mL, 60.0° C., Fast Cooling (4° C.), anti solvent THF/3.0 mL, ppt/filter): Weak crystalline | XRPD ([3]; Water/0.5 mL, 60.0° C., Fast Cooling (4° C.), anti solvent n-PrOH/5.0 mL, Clear/Evap.): Weak crystalline | XRPD ([3]; Water/0.5 mL, 60.0° C., Slow Cooling (20° C./hr), anti solvent EtOH/5.0 mL, Clear/Evap.): Weak crystalline | XRPD ([3]; single solvent crystallization: 1-BuOH 4.0 mL, 60° C., Fast Cooling (4° C.), ppt/filter): Weak | XRPD ([3]; single solvent crystallization: 1-PrOH 4.0 mL, 60° C., Fast Cooling (4° C.), ppt/filter): Weak | XRPD ([3]; single solvent crystallization: 1-PrOH 4.0 mL, 60° C., Slow (20° C./hr), ppt/filter): Weak | XRPD ([3]; single solvent crystallization: MeOH 0.5 mL, 60° C., Fast Cooling (4° C.), ppt/filter): Weak | XRPD ([3]; single solvent crystallization: Water 2.0 mL, 60° C., Fast Cooling (4° C.), Turbid/Evap.): Weak | XRPD ([3]; single solvent crystallization: Water 2.0 mL, 60° C., Slow (20° C./hr), Turbid/Evap.): Weak | Time point (1 day) XRPD ([3]; slurry in 2-MeTHF 1.0 mL): Weak | Time point (1 day) XRPD ([3]; slurry in IPAc 1.0 mL): A with extra | Time point (1 day) XRPD ([3]; slurry in MEK 1.0 mL): Weak | Time point (1 day) XRPD ([3]; slurry in THF 1.0 mL): Weak
